Measurements taken from US11572590B2, “Methods for evaluating tumor cell spheroids using 3D microfluidic cell culture device” (Dana-Farber Cancer Institute, Inc., priority 2017, dated 2023).
Read-outs that look alike come from different tables or passages of the source.

Tests used:
Assay in all cases: SelectScreen Kinase Profiling, single point inhibition and IC50 for off-target kinases
Type in all cases: biochemical
off-target kinases [1] = target: off-target kinases (Homo sapiens, UniProt Q05397); conditions: PTK2 (FAK), ZLYTE, ATP Km app
off-target kinases [2] = target: off-target kinases (Homo sapiens, UniProt P45984); conditions: MAPK9 (JNK2)
off-target kinases [3] = target: off-target kinases (Homo sapiens, UniProt P00533); conditions: EGFR (ErbB1), ZLYTE, ATP Km app
off-target kinases [4] = target: T1, off-target kinases (Homo sapiens, UniProt O43781); conditions: DYRK3, ZLYTE, ATP Km app
T1 sequence (O43781 1-588): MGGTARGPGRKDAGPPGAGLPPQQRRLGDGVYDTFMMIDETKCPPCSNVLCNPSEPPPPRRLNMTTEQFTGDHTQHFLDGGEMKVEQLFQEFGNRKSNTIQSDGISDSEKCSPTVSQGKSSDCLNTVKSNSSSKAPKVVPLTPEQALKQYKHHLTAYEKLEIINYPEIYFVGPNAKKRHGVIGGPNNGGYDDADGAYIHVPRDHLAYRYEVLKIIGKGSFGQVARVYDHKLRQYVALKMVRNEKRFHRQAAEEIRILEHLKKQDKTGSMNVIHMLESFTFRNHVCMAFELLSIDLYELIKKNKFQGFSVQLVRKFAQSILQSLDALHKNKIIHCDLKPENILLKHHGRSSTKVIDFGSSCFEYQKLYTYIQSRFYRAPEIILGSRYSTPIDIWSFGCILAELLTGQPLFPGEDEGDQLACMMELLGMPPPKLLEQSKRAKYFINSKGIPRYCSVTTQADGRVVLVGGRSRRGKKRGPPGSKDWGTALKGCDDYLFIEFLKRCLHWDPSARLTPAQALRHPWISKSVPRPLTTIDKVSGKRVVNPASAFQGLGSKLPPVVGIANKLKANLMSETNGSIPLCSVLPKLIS

off-target kinases [5] = target: T2, off-target kinases (Homo sapiens, UniProt P42681); conditions: TXK, ZLYTE, ATP Km app
T2 sequence (P42681 1-527): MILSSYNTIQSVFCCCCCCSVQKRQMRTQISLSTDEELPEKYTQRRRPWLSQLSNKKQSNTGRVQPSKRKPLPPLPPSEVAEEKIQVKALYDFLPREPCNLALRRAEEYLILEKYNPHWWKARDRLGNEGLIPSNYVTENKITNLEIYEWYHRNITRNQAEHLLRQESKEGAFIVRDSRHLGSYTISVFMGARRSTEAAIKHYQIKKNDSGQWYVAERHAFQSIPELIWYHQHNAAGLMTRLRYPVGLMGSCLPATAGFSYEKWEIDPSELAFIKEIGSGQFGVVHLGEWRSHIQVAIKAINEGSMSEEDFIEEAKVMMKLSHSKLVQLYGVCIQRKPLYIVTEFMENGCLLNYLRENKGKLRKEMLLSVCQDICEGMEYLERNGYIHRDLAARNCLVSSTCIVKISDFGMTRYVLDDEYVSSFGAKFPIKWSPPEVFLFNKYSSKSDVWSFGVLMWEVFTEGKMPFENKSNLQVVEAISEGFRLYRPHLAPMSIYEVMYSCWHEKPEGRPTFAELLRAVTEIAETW

off-target kinases [6] = target: off-target kinases (Homo sapiens, UniProt P29597); conditions: TYK2, ATP Km app, ZLYTE
off-target kinases (Homo sapiens, UniProt P29597), sequence (P29597 whole entry): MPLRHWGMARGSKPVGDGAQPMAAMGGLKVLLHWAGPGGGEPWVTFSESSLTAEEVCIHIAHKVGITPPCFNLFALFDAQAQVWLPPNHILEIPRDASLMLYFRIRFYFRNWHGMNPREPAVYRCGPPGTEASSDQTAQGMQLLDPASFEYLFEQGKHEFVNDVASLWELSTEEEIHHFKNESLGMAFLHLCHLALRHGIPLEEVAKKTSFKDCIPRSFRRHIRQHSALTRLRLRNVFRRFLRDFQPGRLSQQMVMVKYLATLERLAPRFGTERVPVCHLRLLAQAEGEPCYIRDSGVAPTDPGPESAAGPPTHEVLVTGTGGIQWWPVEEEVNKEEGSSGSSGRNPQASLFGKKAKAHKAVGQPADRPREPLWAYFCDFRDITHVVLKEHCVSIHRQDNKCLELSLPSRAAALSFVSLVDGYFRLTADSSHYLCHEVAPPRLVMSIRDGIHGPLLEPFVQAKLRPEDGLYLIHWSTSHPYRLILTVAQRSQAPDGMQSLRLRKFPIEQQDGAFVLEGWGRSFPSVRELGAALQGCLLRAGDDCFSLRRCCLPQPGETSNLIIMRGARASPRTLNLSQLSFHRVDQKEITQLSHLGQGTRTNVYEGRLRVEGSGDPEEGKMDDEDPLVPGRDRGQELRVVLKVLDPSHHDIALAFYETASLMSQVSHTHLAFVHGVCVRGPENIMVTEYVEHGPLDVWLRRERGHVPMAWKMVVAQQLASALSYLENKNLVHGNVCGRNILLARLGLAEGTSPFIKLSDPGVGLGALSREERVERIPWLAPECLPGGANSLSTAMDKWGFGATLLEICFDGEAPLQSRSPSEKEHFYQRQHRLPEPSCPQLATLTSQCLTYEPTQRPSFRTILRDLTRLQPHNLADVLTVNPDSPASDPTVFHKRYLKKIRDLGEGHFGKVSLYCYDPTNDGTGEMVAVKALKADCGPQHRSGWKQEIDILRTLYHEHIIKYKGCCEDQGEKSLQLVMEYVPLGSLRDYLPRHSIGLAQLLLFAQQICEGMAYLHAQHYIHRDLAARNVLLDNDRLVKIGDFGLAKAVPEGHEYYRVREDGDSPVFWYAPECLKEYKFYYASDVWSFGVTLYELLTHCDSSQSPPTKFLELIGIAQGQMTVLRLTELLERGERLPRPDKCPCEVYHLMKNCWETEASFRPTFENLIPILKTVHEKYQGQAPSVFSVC

off-target kinases (Homo sapiens, UniProt P00533), sequence (P00533 25-1210): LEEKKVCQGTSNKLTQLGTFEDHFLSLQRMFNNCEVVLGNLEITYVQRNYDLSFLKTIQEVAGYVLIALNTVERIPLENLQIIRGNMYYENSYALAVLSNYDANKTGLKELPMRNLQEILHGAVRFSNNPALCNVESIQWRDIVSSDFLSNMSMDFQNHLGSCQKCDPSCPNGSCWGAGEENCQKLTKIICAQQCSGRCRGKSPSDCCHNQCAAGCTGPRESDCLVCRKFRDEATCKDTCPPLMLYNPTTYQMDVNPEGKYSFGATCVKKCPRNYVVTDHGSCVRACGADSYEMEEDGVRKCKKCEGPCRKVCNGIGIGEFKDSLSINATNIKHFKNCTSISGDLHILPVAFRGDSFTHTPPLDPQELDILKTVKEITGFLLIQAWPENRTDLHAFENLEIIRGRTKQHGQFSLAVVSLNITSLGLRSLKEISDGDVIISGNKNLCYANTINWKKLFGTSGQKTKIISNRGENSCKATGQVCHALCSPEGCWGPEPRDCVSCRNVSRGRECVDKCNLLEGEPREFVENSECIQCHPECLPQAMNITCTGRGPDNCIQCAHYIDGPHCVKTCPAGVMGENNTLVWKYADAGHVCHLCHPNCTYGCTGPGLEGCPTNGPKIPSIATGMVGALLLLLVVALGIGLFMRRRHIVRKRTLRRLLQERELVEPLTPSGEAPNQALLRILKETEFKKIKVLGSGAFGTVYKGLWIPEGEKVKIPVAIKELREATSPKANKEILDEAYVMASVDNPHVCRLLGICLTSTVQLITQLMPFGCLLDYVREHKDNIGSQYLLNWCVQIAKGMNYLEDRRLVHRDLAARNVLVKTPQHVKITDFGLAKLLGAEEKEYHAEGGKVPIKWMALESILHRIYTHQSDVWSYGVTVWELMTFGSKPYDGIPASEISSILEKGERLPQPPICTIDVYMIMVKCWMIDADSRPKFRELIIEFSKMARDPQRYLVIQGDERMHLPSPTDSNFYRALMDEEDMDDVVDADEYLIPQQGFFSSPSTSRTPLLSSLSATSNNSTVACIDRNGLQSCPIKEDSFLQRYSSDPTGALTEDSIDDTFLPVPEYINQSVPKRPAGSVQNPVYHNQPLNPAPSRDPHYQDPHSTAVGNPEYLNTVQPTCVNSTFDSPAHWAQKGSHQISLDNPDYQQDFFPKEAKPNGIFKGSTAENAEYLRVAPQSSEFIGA
off-target kinases (Homo sapiens, UniProt Q05397), sequence (Q05397 whole entry): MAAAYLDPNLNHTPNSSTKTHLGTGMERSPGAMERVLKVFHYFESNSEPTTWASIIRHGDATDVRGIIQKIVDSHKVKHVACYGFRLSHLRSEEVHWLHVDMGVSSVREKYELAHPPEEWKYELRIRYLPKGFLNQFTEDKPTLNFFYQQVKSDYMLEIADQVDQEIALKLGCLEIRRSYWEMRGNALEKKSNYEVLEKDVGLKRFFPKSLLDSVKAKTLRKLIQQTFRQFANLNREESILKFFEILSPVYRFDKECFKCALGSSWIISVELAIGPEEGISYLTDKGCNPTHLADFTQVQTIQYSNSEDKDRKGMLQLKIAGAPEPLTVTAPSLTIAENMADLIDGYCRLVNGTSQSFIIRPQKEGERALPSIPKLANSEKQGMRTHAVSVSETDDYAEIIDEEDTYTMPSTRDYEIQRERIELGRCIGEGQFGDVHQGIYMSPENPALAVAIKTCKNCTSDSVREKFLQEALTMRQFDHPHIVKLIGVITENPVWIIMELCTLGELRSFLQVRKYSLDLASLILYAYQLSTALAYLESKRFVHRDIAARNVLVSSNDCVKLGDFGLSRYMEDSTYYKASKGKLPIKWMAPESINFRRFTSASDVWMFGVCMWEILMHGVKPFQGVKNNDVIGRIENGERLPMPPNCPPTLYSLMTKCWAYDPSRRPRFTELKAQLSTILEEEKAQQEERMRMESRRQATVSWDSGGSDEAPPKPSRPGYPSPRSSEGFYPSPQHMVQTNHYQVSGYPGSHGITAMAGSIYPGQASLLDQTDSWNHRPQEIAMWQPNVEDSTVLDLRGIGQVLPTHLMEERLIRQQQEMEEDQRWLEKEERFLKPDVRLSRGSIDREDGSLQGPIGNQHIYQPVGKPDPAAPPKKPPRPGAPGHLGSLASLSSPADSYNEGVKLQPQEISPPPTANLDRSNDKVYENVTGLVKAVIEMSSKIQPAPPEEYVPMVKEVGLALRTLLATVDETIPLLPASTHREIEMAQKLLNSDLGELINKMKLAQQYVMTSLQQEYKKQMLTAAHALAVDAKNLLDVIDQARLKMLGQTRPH
off-target kinases (Homo sapiens, UniProt P45984), sequence (P45984 whole entry): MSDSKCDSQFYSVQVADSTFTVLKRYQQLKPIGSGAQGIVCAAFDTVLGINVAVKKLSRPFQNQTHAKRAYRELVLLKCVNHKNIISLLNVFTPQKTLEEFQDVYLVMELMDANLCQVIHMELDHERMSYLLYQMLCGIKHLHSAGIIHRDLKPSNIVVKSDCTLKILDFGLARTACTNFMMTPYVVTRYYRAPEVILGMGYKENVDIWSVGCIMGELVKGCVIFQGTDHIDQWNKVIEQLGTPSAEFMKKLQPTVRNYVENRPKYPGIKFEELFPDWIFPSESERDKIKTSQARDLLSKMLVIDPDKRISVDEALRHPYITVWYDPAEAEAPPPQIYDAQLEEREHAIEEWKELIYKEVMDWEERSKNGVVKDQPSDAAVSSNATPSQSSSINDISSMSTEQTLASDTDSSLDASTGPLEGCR

SMILES: N#Cc1cc(-c2ncnc(Nc3ccc(N4CCN(C5COC5)CC4)cc3)n2)ccc1OC1CCOCC1 [Compound 1, 5-(4-((4-(4-(oxetan-3-yl)piperazin-1-yl)phenyl)amino)-1,3,5-triazin-2-yl)-2-((tetrahydro-2H-pyran-4-yl)oxy)benzonitrile]
- inhibition (off-target kinases [1]; read-out: % Inhibition 1): 0%
- inhibition (off-target kinases [1]; read-out: % Inhibition 2): 2%
- inhibition (off-target kinases [1]; read-out: % Inhibition Avg): 1%
- inhibition (off-target kinases [2]; LanthaScreen Binding, read-out: % Inhibition 1): 12%
- inhibition (off-target kinases [2]; LanthaScreen Binding, read-out: % Inhibition 2): 14%
- inhibition (off-target kinases [2]; LanthaScreen Binding, read-out: % Inhibition Avg): 13%
- inhibition (off-target kinases [2]; ZLYTE, ATP 100, read-out: % Inhibition 1): 12%
- inhibition (off-target kinases [2]; ZLYTE, ATP 100, read-out: % Inhibition 2): 21%
- inhibition (off-target kinases [2]; ZLYTE, ATP 100, read-out: % Inhibition Avg): 16%
- inhibition (off-target kinases [3]; read-out: % Inhibition 1): 10%
- inhibition (off-target kinases [3]; read-out: % Inhibition 2): 9%
- inhibition (off-target kinases [3]; read-out: % Inhibition Avg): 9%
- inhibition (off-target kinases [4]; read-out: % Inhibition 1): 26%
- inhibition (off-target kinases [4]; read-out: % Inhibition 2): 24%
- inhibition (off-target kinases [4]; read-out: % Inhibition Avg): 25%
- inhibition (off-target kinases [5]; read-out: % Inhibition 1): 27%
- inhibition (off-target kinases [5]; read-out: % Inhibition 2): 36%
- inhibition (off-target kinases [5]; read-out: % Inhibition Avg): 31%
- inhibition (off-target kinases [6]; read-out: % Inhibition 1): 65%
- inhibition (off-target kinases [6]; read-out: % Inhibition 2): 64%
- inhibition (off-target kinases [6]; read-out: % Inhibition Avg): 64%
